Laboratory results: US20040048350A1 (priority 2001, published 2004)

How the values were obtained:
E. coli RNAP holoenzyme = E. coli RNAP holoenzyme (Escherichia coli, UniProt P0A8V2); assay: Transcription assay, T7A1 promoter template, rifampicin inhibition of E. coli RNAP holoenzyme; format: biochemical; settings: CpA primer, 37° C., read-out: Ki (estimated from the rifampicin concentration where the production of long transcripts was inhibited by 50%)
Excerpt: (§1) FIG. 2a depicts autoradiographs showing the radioactive RNA produced by Taq (lanes 1-7) and E. coli (lanes 8-13) RNAP holoenzymes transcribing a template containing the T7 A1 promoter and the tR2 terminator, analyzed on a 15% polyacrylamide gel and quantitated by phosphorimagery. In the absence of rifampicin (lanes 1 and 8), the major RNA products from each RNAP correspond to a trimeric abortive product (CpApU), a 105 nucleotide terminated transcript (Term), and a 127 nucleotide runoff transcript (Run off). Lanes 2-7 and 9-13 show the effects of increasing concentrations of rifampicin. […] Rif-nucleotide compounds (Rif-(CH2)n-Ap) with different linker lengths, n (indicated above each lane) were bound to RNAP, then extended in a specific transcription reaction with α-[^32P]UTP by the RNAP catalytic activity. The products were analyzed on a 23% polyacrylamide gel, visualized by autoradiography, and quantitated by phosphorimagery.
(§2) The transcription assay comparing rifampicin inhibition of E.coli and Taq RNAPs (FIG. 2a) was performed as previously described [Nudler et al., Science 265:793-796 (1994)]. Briefly, 0.1 pmol of purified Taq core RNAP [Zhang et al., Cell 98:811-824 (1999); U.S. Ser. No. 09/396,651, Filed Sep. […] Radioactive RNA products were analyzed on a 15% polyacrylamide sequencing gel.

Taq RNAP holoenzyme = molecular target: T1, Taq RNAP holoenzyme (Thermus aquaticus, UniProt Q9KWU7); assay: Transcription assay, T7A1 promoter template, rifampicin inhibition of Taq RNAP holoenzyme; format: biochemical; settings: CpA primer, 37° C., read-out: Ki (estimated from the rifampicin concentration where the production of long transcripts was inhibited by 50%)
T1 construct: Taq core RNAP purified from Taq cells; made in house; host or cells: core: purified natively from Thermus aquaticus cells; σA: recombinant in E. coli
Excerpt: as §1, §2

Structure (SMILES): CO[C@H]1/C=C/O[C@@]2(C)Oc3c(C)c(O)c4c(O)c(c(/C=N/N5CCN(C)CC5)c(O)c4c3C2=O)NC(=O)/C(C)=C\C=C\[C@H](C)[C@H](O)[C@@H](C)[C@@H](O)[C@@H](C)[C@H](OC(C)=O)[C@@H]1C [rifampicin]
- Ki (E. coli RNAP holoenzyme): ~100 nM
- Ki (Taq RNAP holoenzyme): ~10 µM
